From patent publication US20130253019A1, “LYSOPHOSPHATIDIC ACID RECEPTOR ANTAGONISTS FOR THE TREATMENT OF CONDITIONS OR DISEASES OF THE EYE” (priority 2010, published 2013)

How the values were obtained:
Human LPA1 = molecular target: T1, Human LPA1 (Homo sapiens, UniProt Q92633); assay: LPA1 calcium flux assay; assay type: cell-based; settings: CHO cells expressing human LPA1, 10 nM LPA; read-out: Ca Flux IC50 LPA1
T1 construct: the full-length cDNA for human LPA1 was obtained by PCR of the reverse transcription reaction; expressed in transfected cells
Protocol: A 1.1 kb cDNA encoding the human LPA1 receptor was cloned from human lung. Human lung RNA (Clontech Laboratories, Inc. USA) was reverse transcribed using the RETROscript kit (Ambion, Inc.) and the full-length cDNA for human LPA1 was obtained by PCR of the reverse transcription reaction. The nucleotide sequence of the cloned human LPA1 was determined by sequencing and confirmed to be identical to the published human LPA1 sequence (An et al. Biochem. Biophys. Res. Commun. 231:619 (1997). The cDNA was cloned into the pcDNA5/FRT expression plasmid and transfected in CHO cells using lipofectamine 2000 (Invitrogen Corp., USA). Clones stably expressing human LPA1 were selected using hygromycin and identified as cells that show Ca-influx in response to LPA.
(§1) Human LPA1 or LPA3 expressing CHO cells are seeded at 20,000-45,000 cells per well in a 96-well poly-D-lysine coated plate one or two days before the assay. Prior to the assay, the cells are washed once with PBS and then cultured in serum-free media for at least 6 hrs and up to 24 hrs. On the day of the assay, a calcium indicator dye (Calcium 5, Molecular Devices) in assay buffer (HBSS with Ca^2+ and Mg^2+ and containing 20 mM Hepes and 0.3% fatty-acid free human serum albumin) is added to each well and incubation continued for 1 hour at room temperature. 10 μl of test compounds in 2.5% DMSO are added to the cells and incubation continued at room temperature for 30 minutes. Cells are the stimulated by the addition of 10 nM LPA and intracellular Ca^2+ measured using the Flexstation 3 (Molecular Devices). IC50s are determined using Symyx Assay Explorer analysis of drug titration curves.

human LPA2 = molecular target: T2, human LPA2 (Homo sapiens, UniProt Q9HBW0); assay: LPA2 calcium flux assay; assay type: cell-based; settings: BT-20 cells or B103 cells transiently expressing human LPA2; read-out: Ca Flux IC50 LPA2
T2 construct: expressed in transfected cells; host or cells: B103 cells (transient), or alternatively BT-20 human breast cancer cells (endogenous)
Protocol: An expression vector encoding the human LPA2 cDNA was transiently transfected into B103 cells using Lipofectamine™ 2000 (Invitrogen) following the manufacturers instruction. On the day before the assay, 30,000-35,000 cells/well were seeded together with 0.2 μl lipofectamine 2000 and 0.2 μg human LPA2 expression vector in 96-well Poly-D-Lysine coated black-wall clear-bottom plates (BD BioCoat) in DMEM+10% FBS. Following an overnight culture, cells were washed once with PBS then cultured in serum-free media for 4 hours prior to start of the calcium flux assay.
LPA2 calcium flux is measured using at least one of two different assays. In one assay, BT-20 human breast cancer cells are seeded at 25,000-35,000 cells per well in 150 μl complete media on Poly-D-Lysine coated black-wall clear-bottom plates. Following an overnight culture, cells are washed once with PBS then serum starved for 4-6 hours prior to the assay. On the day of the assay, a calcium indicator dye (Calcium 5, Molecular Devices) in assay buffer (HBSS with Ca^2+ and Mg^2+ and containing 20 mM Hepes and 0.3% fatty-acid free human serum albumin) is added to each well and incubation continued for 15 minutes at 37° C. 25 μl of test compounds in 2.5% DMSO are added to the cells and incubation continued at 37° C. for 15-30 minutes. Cells are the stimulated by the addition of 100 nM LPA and intracellular Ca^2+ measured using the Flexstation 3 (Molecular Devices). IC50s are determined using Symyx Assay Explorer analysis of drug titration curves In the second assay, B103 cells transiently expressing huma LPA2 are serum starved for 4 hours. A calcium indicator dye (Calcium 4, Molecular Devices) in assay buffer (HBSS with Ca^2+ and Mg^2+ and containing 20 mM Hepes and 0.3% fatty-acid free human serum albumin) is then added to each well and incubation continued for 1 hour at 37° C. 10 μl of test compounds in 2.5% DMSO are added to the cells and incubation continued at room temperature for 30 minutes. Cells are the stimulated by the addition of 10 nM LPA and intracellular Ca^2+ measured using the Flexstation 3 (Molecular Devices). IC50s are determined using Symyx Assay Explorer analysis of drug titration curves.

Human LPA3 = molecular target: T3, Human LPA3 (Homo sapiens, UniProt Q9UBY5); assay: LPA3 calcium flux assay; assay type: cell-based; settings: CHO cells expressing human LPA3, 10 nM LPA; read-out: Ca Flux IC50 LPA3
T3 construct: The full-length cDNA fragment for human LPA3 was obtained by PCR from the vector; expressed in transfected cells; cDNA from the Missouri S&T cDNA Resource Center
T3 sequence (Q9UBY5 1-353): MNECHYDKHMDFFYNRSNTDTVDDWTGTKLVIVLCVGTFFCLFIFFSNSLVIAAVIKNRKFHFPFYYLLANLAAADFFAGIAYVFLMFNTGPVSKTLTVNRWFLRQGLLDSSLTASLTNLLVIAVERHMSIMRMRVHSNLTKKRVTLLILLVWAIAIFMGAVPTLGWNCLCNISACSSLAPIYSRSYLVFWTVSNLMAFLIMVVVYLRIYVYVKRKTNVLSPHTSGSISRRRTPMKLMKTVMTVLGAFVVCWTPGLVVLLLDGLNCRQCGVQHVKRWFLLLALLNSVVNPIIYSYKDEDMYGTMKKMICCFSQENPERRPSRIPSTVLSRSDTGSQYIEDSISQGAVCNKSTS
Protocol: A vector containing the human LPA3 receptor cDNA was obtained from the Missouri S&T cDNA Resource Center (www.cdna.org). The full-length cDNA fragment for human LPA3 was obtained by PCR from the vector. The nucleotide sequence of the cloned human LPA3 was determined by sequencing and confirmed to be identical to the published human LPA3 sequence (NCBI accession number NM_012152). The cDNA was cloned into the pcDNA5/FRT expression plasmid and transfected in CHO cells using lipofectamine 2000 (Invitrogen Corp., USA). Clones stably expressing human LPA3 were selected using hygromycin and identified as cells that show Ca-influx in response to LPA.
as §1

LPA5 = LPA5 (Homo sapiens, UniProt Q9H1C0); assay: LPA5 Ca flux assay; assay type: cell-based
LPA4 = LPA4 (Homo sapiens, UniProt Q99677); assay: LPA4 Ca flux assay; assay type: cell-based
CNV lesion = settings: po, 30 mg/kg, 336 h

T2 sequence (Q9HBW0 whole entry): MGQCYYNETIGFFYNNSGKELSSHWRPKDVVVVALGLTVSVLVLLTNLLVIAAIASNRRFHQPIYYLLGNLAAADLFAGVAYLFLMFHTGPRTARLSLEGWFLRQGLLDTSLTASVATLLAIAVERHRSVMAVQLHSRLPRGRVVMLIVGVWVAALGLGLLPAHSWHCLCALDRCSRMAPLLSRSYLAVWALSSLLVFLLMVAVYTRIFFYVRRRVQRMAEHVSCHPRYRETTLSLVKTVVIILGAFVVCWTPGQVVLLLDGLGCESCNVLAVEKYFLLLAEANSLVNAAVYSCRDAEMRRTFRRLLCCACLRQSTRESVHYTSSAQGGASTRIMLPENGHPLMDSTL
Sequence of LPA4 (Q99677 whole entry, species assumed): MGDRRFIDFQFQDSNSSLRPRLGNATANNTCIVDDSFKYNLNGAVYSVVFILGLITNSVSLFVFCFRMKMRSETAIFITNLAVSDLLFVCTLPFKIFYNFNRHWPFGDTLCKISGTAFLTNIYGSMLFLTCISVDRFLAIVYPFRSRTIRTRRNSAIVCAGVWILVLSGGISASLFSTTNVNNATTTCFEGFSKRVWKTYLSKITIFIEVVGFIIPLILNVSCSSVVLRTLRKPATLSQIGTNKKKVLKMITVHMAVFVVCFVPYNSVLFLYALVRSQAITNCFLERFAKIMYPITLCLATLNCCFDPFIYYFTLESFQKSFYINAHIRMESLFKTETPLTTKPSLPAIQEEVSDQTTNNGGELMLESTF
T1 sequence (Q92633 whole entry): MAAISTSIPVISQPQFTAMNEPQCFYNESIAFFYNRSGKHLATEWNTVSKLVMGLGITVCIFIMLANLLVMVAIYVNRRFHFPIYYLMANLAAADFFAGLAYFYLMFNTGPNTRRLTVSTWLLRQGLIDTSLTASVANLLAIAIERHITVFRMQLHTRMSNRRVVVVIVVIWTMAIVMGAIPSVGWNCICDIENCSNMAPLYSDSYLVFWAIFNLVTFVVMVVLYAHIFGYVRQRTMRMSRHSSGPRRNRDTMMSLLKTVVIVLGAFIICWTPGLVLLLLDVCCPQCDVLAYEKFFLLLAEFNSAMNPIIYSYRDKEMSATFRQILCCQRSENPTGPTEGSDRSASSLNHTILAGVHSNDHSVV
Sequence of LPA5 (Q9H1C0 whole entry, species assumed): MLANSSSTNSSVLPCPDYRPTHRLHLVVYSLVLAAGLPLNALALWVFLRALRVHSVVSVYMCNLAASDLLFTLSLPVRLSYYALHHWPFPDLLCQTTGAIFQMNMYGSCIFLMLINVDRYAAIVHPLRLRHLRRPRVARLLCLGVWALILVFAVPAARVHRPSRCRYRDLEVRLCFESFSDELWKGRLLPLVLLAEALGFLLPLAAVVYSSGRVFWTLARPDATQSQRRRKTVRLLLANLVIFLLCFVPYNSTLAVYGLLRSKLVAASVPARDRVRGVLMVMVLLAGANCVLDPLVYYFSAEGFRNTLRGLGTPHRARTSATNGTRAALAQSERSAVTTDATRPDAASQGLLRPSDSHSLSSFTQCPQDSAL

Structure (SMILES)	IC50 (Human LPA1) [nM]	IC50 (human LPA2) [nM]	IC50 (Human LPA3) [nM]	IC50 (LPA5) [nM]	IC50 (LPA4) [nM]	decrease of CNV lesion volume (CNV lesion) [%]
Cc1noc(-c2ccc(-c3ccc(C4(c5nnn[nH]5)CC4)cc3)cc2)c1NC(=O)O[C@H](C)c1ccccc1 [Compound H, (3-Methyl-5-{4′-[1-(1H-tetrazol-5-yl)-cyclopropyl]-biphenyl-4-yl}-isoxazol-4-yl)-carbamic acid (R)-1-phenyl-ethyl ester]	< 200	> 1000	> 1000	> 1000	> 1000	
Cc1noc(-c2ccc(-c3ccc(CC(=O)O)cc3)cc2)c1NC(=O)O[C@H](C)c1ccccc1Cl [Compound C, (R)-2-(4′-(4-((1-(2-chlorophenyl)ethoxy)carbonylamino)-3-methylisoxazol-5-yl)biphenyl-4-yl)acetic acid]	< 200	> 1000	> 1000	> 1000	> 1000	
Cc1noc(-c2ccc(-c3ccc(C4(c5nc(=O)o[nH]5)CC4)cc3)cc2)c1NC(=O)O[C@H](C)c1ccccc1 [Compound G, (3-Methyl-5-{4′-[1-(5-oxo-2,5-dihydro-[1,2,4]oxadiazol-3-yl)-cyclopropyl]-biphenyl-4-yl}-isoxazol-4-yl)-carbamic acid (R)-1-phenyl-ethyl ester]	< 200	> 1000	> 1000	> 1000	> 1000	

More lines, main results first:

IC50 (Human LPA1) [nM]	IC50 (human LPA2) [nM]	IC50 (Human LPA3) [nM]	IC50 (LPA5) [nM]	IC50 (LPA4) [nM]	Structure (SMILES)	decrease of CNV lesion volume (CNV lesion) [%]
< 200	> 1000	200 to 1000	> 1000		Cc1noc(-c2ccc(-c3ccc(C4(C(=O)O)CC4)cc3)cc2)c1NC(=O)O[C@H](C)c1ccccc1Cl [Compound E, 1-(4′-{4-[(R)-1-(2-Chloro-phenyl)-ethoxycarbonylamino]-3-methyl-isoxazol-5-yl}-biphenyl-4-yl)-cyclopropanecarboxylic acid]	
< 200		> 1000		> 1000	C[C@@H](OC(=O)Nc1cnoc1-c1ccc(-c2ccc(C3(C(=O)O)CC3)cc2)cc1)c1ccccc1 [Compound F, 1-{4′-[4-((R)-1-Phenyl-ethoxycarbonylamino)-isoxazol-5-yl]-biphenyl-4-yl}-cyclopropanecarboxylic acid]	
< 200	200 to 1000	> 1000	> 1000	> 1000	Cc1noc(-c2ccc(-c3ccc(C4(C(=O)NS(C)(=O)=O)CC4)cc3)cc2)c1NC(=O)O[C@H](C)c1ccccc1 [Compound D, {5-[4′-(1-Methanesulfonylaminocarbonyl-cyclopropyl)-biphenyl-4-yl]-3-methyl-isoxazol-4-yl}-carbamic acid (R)-1-phenyl-ethyl ester]	
< 200	> 1000	> 1000	> 1000	> 1000	Cc1noc(-c2ccc(-c3ccc(C4(C(=O)O)CC4)cc3)cc2)c1NC(=O)O[C@H](C)c1ccccc1 [Compound B, (R)-1-(4′-(3-methyl-4-((1-phenylethoxy)carbonylamino)isoxazol-5-yl)biphenyl-4-yl)cyclopropanecarboxylic acid]	11
< 200	> 1000	> 1000	> 1000	> 1000	Cc1noc(-c2ccc(-c3ccc(CC(=O)O)cc3)cc2)c1NC(=O)O[C@H](C)c1ccccc1 [Compound A, (R)-2-(4′-(3-methyl-4-((1-phenylethoxy)carbonylamino)isoxazol-5-yl)biphenyl-4-yl)acetic acid]	
